Laboratory results: patent US10537541B2, “Treatment of focal segmental glomerular sclerosis (FSGS) using therapeutically effective oral doses of 10-nitro-9(E)-octadec-9-enoic acid” (Complexa, Inc., priority 2015, dated 2020)
Where two headings read alike, the source gives them in different places.

Legend:
[1] = Multiple ascending dose study in obese males: pharmacokinetics; assay type: in vivo, human; conditions: for plasma concentration Day 21 / plasma concentration Day 28: after 14 days dosing; for Tmax: male, human, plasma, oral, 450 mg, read-out: Median Tmax
Excerpt: The primary endpoints of this study included safety and tolerability, pharmacokinetics, and biomarkers. The safety and tolerability included physical examinations, adverse event (AE) reporting, vital signs (blood pressure, heart rate, respiratory rate), clinical laboratory values (hematology, biochemistry, and urinalysis) including serum magnesium and creatine phosphokinase (CPK), 12-lead electrocardiograms (ECGs) for safety assessments and QTcF measured on ECGs extracted from cardiac Holter monitoring. The pharmacokinetic measurements included maximum observed plasma drug concentration (Cmax), time to maximum plasma drug concentration (Tmax), terminal phase half-life (t½), area under the plasma drug concentration versus time curve (AUC0-last, AUC0-∞), clearance (CL/F), volume of distribution (Vd/F) and terminal elimination rate constant (λz).
(§1) This was a single-center, randomized, double-blind, placebo-controlled study of sequential multiple ascending doses of oral CXA-10 in obese male subjects. Eligible subjects included obese males age 19 to 57 years and BMI 27.0 to 39.5 kg/m^2. CXA-10 and placebo were provided as solutions in hard shell capsules. Three (3) cohorts of subjects were dosed once daily with CXA-10 for 14 days. The doses administered in this study were 25, 150 and 450 mg. Subjects enrolled in the highest dose level (450 mg) were administered 600 mg on day 1 then 450 mg for 13 days. This cohort (cohort 3) was given the option to receive an additional 450 mg dose on day 15 with a high fat (50%) breakfast.
Subjects remained at the unit until discharge on Day 15 after assessments were completed and reviewed. […] They remained in the unit until Day 16 (24 h after last dose on Day 15) before being discharged from the unit. The additional procedures on Day 15 and Day 16 were optional for subjects in cohort 3.
(§2) Full PK profiles were obtained on Days 1 and 14. For subjects in cohort 3 who participate in the additional procedures on Day 15, full PK profiles were obtained on Days 1, 14, and 15. An abbreviated PK profile could also be obtained for the highest dose cohort only on one additional day. The actual day of PK sampling coincided with the additional day of Holter monitoring for the highest dose cohort. Subjects returned on Day 21 and Day 28 for PK, safety, and biomarker assessments.

[2] = tested on: deoxycorticosterone acetate (DOCA)/salt-induced model of FSGS; test: DOCA/salt-induced mouse model of FSGS: renoprotection, body weight, blood pressure, organ/body weight ratios; assay type: in vivo, mice (129/sv strain); conditions: DOCA/salt mice
Experimental: 10-nitro-9(E)-octadec-9-enoic acid, given orally after onset of renal injury, was evaluated for efficacy in a model for Focal Segmental Glomerular Sclerosis (FSGS) in humans. […] Mice were uni-nephrectomized and, after two weeks, implanted subcutaneously with DOCA (50 mg, 21-day release) or placebo sustained release pellets, with pellet replacement 3 weeks later. All groups, except the sham control group, also received 1% NaCl in tap water. 10-nitro-9(E)-octadec-9-enoic acid (daily oral gavage, 2.5 or 12.5 mg/kg) or enalapril (20 mg/kg/day in drinking water) treatments began 2 weeks after the first DOCA implantation and continued for 4 weeks. Enalapril was included for comparison because it is used as standard of care for FSGS and this is a positive control for the model.
Induction of model: Male mice (129/sv strain) were purchased from Taconic Labs. The animals were uninephrectomized (Unx) at 6 weeks of age by the vendor and shipped one week after surgery. At 2 weeks post Unx, a DOCA or placebo pellet (21-day release pellets, 50 mg/pellet, Innovative Research of America, Sarasota, Fla.) was implanted s.c. All mice were then placed on a semisynthetic diet which contained a moderate fat content and a low phytoestrogen/anti-oxidant level, which approximates a normal human diet (4). A second DOCA or placebo pellet was implanted three weeks later.
Treatment: Mice were treated with placebo, 10-nitro-9(E)-octadec-9-enoic acid at a dose of 2.5 and 12.5 mg/kg, or enalapril (standard of care) for 4 weeks by oral gavage starting 2 weeks after the first DOCA implantation. One percent NaCl in tap water was given to each group except the sham control group. Body weight was measured weekly, and doses were readjusted based on the current body weight. Urine and blood samples were collected prior to treatment and at week 2 and 4 of treatment. Mice were terminated at week 4. Data is presented as the mean+SEM for the number of animals listed in each group.

[3] = tested on: adriamycin-induced nephropathy model; conditions: continually infused at disease onset; cited from earlier work
[4] = tested on: obese male subjects; test: Multiple ascending dose study in obese males: serum biomarkers (leptin, MCP-1, IL-6, triglycerides, cholesterol); assay type: in vivo, human
Excerpt: Biomarker characterization included the following laboratory parameters: serum leptin, FBG, total cholesterol, HDL and LDL, triglycerides, HR, PR, QRS interval and T-wave morphology measured on ECGs extracted from cardiac Holter monitoring, measurements of serum RBP4, CRP, PAI-1, measurements of serum cytokines: IL-6, TNFα, MCP-1, measurements of the following biomarkers in whole blood by quantitative reverse transcriptase polymerase chain reaction (qRT-PCR) including: HO-1, NQ01, GCLM, HSP70 (HSP1A HSP1B, HSPA6), HSP22 (HSPB8) and HPS40 (DNAJA4), urine RBP4, MCP-1 and KIM-1, urinary exosomes by qRT-PCR including: HO-1, NQ01, GCLM, HSP70 (HSP1A HSP1B, HSPA6), HSP22 (HSPB8) and HPS40 (DNAJA4), gene and protein expression analyses by DNAseq, RNAseq, and western blots in PBMCs and ratio of EETs to DHETs in serum and urine.
as §1, §2

[5] = biological target: CYP450 3A4 (Homo sapiens, UniProt P08684); test: In vitro CYP450 evaluation; assay type: in vitro ADME
Chain of CYP450 3A4 (P08684 whole entry, the tested form may be a part): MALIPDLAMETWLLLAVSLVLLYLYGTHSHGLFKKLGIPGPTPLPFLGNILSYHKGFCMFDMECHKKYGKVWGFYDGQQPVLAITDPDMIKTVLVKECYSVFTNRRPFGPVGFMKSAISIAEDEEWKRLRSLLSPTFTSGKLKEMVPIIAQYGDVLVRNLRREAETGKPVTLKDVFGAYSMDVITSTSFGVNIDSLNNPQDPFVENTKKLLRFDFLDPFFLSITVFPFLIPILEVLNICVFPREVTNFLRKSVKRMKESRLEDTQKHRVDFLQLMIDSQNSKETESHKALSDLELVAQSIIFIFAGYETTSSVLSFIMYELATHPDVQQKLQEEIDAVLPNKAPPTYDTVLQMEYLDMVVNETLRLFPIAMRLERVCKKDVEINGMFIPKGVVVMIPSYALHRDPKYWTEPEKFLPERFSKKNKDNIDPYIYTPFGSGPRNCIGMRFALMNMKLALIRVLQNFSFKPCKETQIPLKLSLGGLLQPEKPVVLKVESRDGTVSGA

[6] = tested on: db/db model; conditions: given by infusion; cited from earlier work
[7] = cohort 3, day 15 with high fat (50%) breakfast versus fasted

CCCCCCCC/C(=C\CCCCCCCC(=O)O)[N+](=O)[O-] [CXA-10, 10-nitro-9(E)-octadec-9-enoic acid]
plasma concentration Day 21 ([1]; 25 mg cohort): 0.17 ng/mL
plasma concentration Day 28 ([1]; 25 mg cohort): 0 ng/mL
plasma concentration Day 21 ([1]; 150 mg cohort): 0.33 ng/mL
plasma concentration Day 28 ([1]; 150 mg cohort): (0.39 ng/mL
plasma concentration Day 21 ([1]; 450 mg cohort): 0.38 ng/mL
plasma concentration Day 28 ([1]; 450 mg cohort): 0.30 ng/mL
pharmacokinetics profiles (dose proportionality, accumulation) ([1]; 25, 150, 450 mg once daily, day 1 and day 14): dose proportional concentration-times with minimal accumulation
increase of AUC under fed conditions [1, 7]: about 1.7 fold
increase of Cmax under fed conditions [1, 7]: about 2 fold
Tmax ([1]; fasted conditions): 3 h
Tmax ([1]; fed conditions (high fat breakfast)): 6 h
renal protector (renoprotective effect) ([2]; 2.5 mg/kg/day oral gavage): highly effective as a renal protector
body weight gains ([2]; 10-nitro-9(E)-octadec-9-enoic acid 2.5 or 12.5 mg/kg p.o. or enalapril 20 mg/kg/d, 4 weeks): unaffected
kidney/body weight and heart/body ratios ([2]; low dose 2.5 mg/kg p.o. QD, 4 weeks): reduced
podocyte number [3]: increase in podocyte number
Cholesterol concentrations, change from baseline ([4]; 150 mg): trend to decrease from baseline
MCP-1 mean change from baseline compared to placebo ([4]; 150 mg): significantly different compared to placebo
Triglycerides LS Mean Difference (CI) ([4]; 150 mg versus placebo, Day 8): -45.4 mg/dL
MCP-1 LS Mean Difference (CI) ([4]; 150 mg versus placebo, Day 14 (0-10 hr)): −228.5 (−387.2, −69.77) pg/mL
Triglycerides LS Mean Difference (CI) ([4]; 150 mg versus placebo, Day 15): -59.6 mg/dL
decrease of leptin concentrations from baseline ([4]; 150 mg, day 14, placebo increased 35%): 21.5%
IL-6 concentrations, change from baseline ([4]; 150 mg, days 7 and 14): trend to decrease from baseline
Leptin % change from baseline ([4]; Cohort 2 150 mg (n = 10), Day 14): −21.5%
Leptin LS Mean Difference (CI) versus placebo ([4]; Cohort 2 150 mg versus placebo, Day 14): −56.5 (−140.5, 27.5) pg/mL
IC50 [5]: > 33 µM
podocyte number [6]: increase in podocyte number
